How the values were obtained:
endogenous CGRP receptor = endogenous CGRP receptor (Homo sapiens, UniProt O60894+Q16602); assay: CGRP functional antagonism using SK-N-MC-BLA (4C10), β-lactamase transcriptional reporter assay; type: cell-based; conditions: SK-N-MC (4C10) cells, inhibition of β-lactamase expression in the presence of 200 pM CGRP
[1] = target: T1, CGRP receptor (SK-N-MC membrane) (Homo sapiens, UniProt O60894+Q16602); assay: I125-CGRP binding displacement assay on purified SK-N-MC membrane
T1 construct: Purified SK-N-MC membrane was purchased from Perkin Elmer; purchased Perkin Elmer; host or cells: SK-N-MC membrane
T1 sequence (Q16602 23-461): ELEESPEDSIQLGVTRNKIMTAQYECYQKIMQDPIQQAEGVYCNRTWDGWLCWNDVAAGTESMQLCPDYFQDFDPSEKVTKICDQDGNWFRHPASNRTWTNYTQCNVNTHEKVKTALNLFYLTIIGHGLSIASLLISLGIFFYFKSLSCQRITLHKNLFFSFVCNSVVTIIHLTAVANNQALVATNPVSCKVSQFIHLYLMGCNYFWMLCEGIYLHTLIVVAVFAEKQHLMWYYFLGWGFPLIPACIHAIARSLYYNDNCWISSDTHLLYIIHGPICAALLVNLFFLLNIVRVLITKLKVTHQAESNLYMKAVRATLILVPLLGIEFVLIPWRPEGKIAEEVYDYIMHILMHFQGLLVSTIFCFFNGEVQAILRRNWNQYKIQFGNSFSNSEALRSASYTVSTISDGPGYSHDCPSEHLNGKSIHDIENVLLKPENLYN
T1 sequence (O60894 27-148): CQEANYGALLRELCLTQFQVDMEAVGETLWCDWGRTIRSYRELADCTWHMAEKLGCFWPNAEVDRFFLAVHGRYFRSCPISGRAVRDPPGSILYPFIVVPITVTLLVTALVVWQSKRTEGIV
Method in brief: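 Human SK-N-MC membranes incubated with compounds and I125-CGRP for 2 h at room temperature in 25 mM Tris-HCl pH 7.4, 5 mM MgCl2, 0.1% BSA, 0.05% Tween, then filtered and counted. Nonspecific binding defined with 1 uM unlabelled CGRP; percent displacement fitted to curves.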

Sequence of endogenous CGRP receptor (Q16602 23-461): as the sequence (Q16602 23-461) above
Sequence of endogenous CGRP receptor (O60894 27-148): as the sequence (O60894 27-148) above

SMILES	IC50 (endogenous CGRP receptor) [nM]	Ki [1] [nM]
CN1CCN(c2ccccc2C2SC(CC(=O)N3CCC4(CC3)CC(=O)Nc3ccccc3O4)C(=O)N2CCC(C)(C)C)CC1 (centres unmarked) [Compound 328]	< 1000	< 1000
Cc1ccccc1C1SC(CC(=O)N2CCC(N3Cc4ccccc4NC3=O)CC2)C(=O)N1CCC(C)C (centres unmarked) [Compound 172]	< 1000	< 1000
CNC1CCN(c2c(F)cccc2[C@H]2S[C@@H](CC(=O)N3CCC(n4c(=O)[nH]c5ncccc54)CC3)C(=O)N2CCC(C)(C)C)C1 (some centres unmarked) [Compound 458]	< 1000	< 1000
CC(C)CCN1C(=O)C(CC(=O)N2CCC(n3c(=O)[nH]c4ccccc43)CC2)SC1c1ccccc1 (centres unmarked) [Compound 104]	> 5000	> 5000
CC(C)CCN1C(=O)C(CC(=O)N2CCC(N3Cc4ccccc4NC3=O)CC2)[S+]([O-])C1c1ccccc1 (centres unmarked) [Compound 118]	1000 to 5000	< 1000
CN(C)c1ccccc1C1SC(CC(=O)N2CCC(n3c(=O)[nH]c4ccccc43)CC2)C(=O)N1CCC(C)(C)C (centres unmarked) [Compound 299]	< 1000	< 1000
CNC1CCN(c2c(F)cccc2[C@@H]2S[C@@H](CC(=O)N3CCC(n4c(=O)[nH]c5ncccc54)CC3)C(=O)N2CCC(C)(C)C)C1 (some centres unmarked) [Compound 459]	< 1000	< 1000
CC(C)(C)N1CCN(c2c(F)cccc2[C@H]2S[C@@H](CC(=O)N3CCC(N4CCc5ccccc5NC4=O)CC3)C(=O)N2CCc2ccccc2)CC1 [Compound 507]	< 1000	< 1000
CC(C)CCN1C(=O)C(CC(=O)N2CCC(N3Cc4ccccc4NC3=O)CC2)SC1c1cccc(OC(F)(F)C(F)F)c1 (centres unmarked) [Compound 240]	1000 to 5000	< 1000
O=C(CC1SC(c2ccccc2)N(CCc2ccncc2)C1=O)N1CCC(n2cc(-c3ccccc3)[nH]c2=O)CC1 (centres unmarked) [Compound 53]	> 5000	> 5000
CC(C)(C)CCN1C(=O)[C@H](CC(=O)N2CCC(n3c(=O)[nH]c4ncccc43)CC2)SC1c1ccccc1C1CCNCC1 (some centres unmarked) [Compound 528]	< 1000	< 1000
CC(C)CCN1C(=O)C(CC(=O)N2CCC(N3Cc4ccccc4NC3=O)CC2)[S+]([O-])C1c1ccc(F)cc1F (centres unmarked) [Compound 66]	< 1000	< 1000
CN1CCN(c2ccc(F)cc2[C@H]2S[C@@H](CC(=O)N3CCC(n4c(=O)[nH]c5ncccc54)CC3)C(=O)N2CCC(C)(C)C)CC1 [Compound 397]	> 5000	> 5000
CC(C)(C)N1CCN(c2c(F)cccc2C2S[C@@H](CC(=O)N3CCC(n4c(=O)[nH]c5ncccc54)CC3)C(=O)N2CC2CCOCC2)CC1 (some centres unmarked) [Compound 525]	< 1000	< 1000
CN1CCN(c2cc(F)ccc2C2SC(CC(=O)N3CCC(n4cc(-c5ccccc5)[nH]c4=O)CC3)C(=O)N2CCC(C)(C)C)CC1 (centres unmarked) [Compound 363]	< 1000	< 1000
CC(C)CN1C(=O)C(CC(=O)N2CCC(N3Cc4ccccc4NC3=O)CC2)SC1c1ccccc1 (centres unmarked) [Compound 9]	< 1000	< 1000

SMILES	IC50 (endogenous CGRP receptor) [nM]	Ki [1] [nM]
CC(C)CCN1C(=O)C(CC(=O)N2CCC(N3Cc4ccccc4NC3=O)CC2)SC1c1ccccc1C#N (centres unmarked) [Compound 227]	< 1000	< 1000
CC(C)(C)CCN1C(=O)[C@H](CC(=O)N2CCC(n3c(=O)[nH]c4ncccc43)CC2)S[C@H]1c1cccc(F)c1C1CCNCC1 [Compound 555]	1000 to 5000	< 1000
CC(C)CCN1C(=O)C(CC(=O)N2CCC(N3Cc4ccccc4NC3=O)CC2)SC1c1c(Cl)cccc1Cl (centres unmarked) [Compound 76]	< 1000	< 1000
Cc1cc(C2SC(CC(=O)N3CCC(n4cc(-c5ccccc5)[nH]c4=O)CC3)C(=O)N2CCC(C)C)cc2cn[nH]c12 (centres unmarked) [Compound 248]	< 1000	> 5000
CC(C)CCN1C(=O)C(CC(=O)N2CCC(N3Cc4ccccc4NC3=O)CC2)SC12CCSCC2 (centres unmarked) [Compound 84]	< 1000	< 1000
CC(C)OCCN1C(=O)[C@H](CC(=O)N2CCC(n3c(=O)[nH]c4ncccc43)CC2)SC1c1cccc(F)c1N1CCN(C(C)(C)C)CC1 (some centres unmarked) [Compound 530]	< 1000	< 1000
CC(C)(C)CCN1C(=O)C(CC(=O)N2CCC(n3c(=O)[nH]c4ccccc43)CC2)S[C@H]1c1ccccc1N1CCC(O)CC1 (some centres unmarked) [Compound 296]	< 1000	< 1000
COC(=O)[C@@H](CC(C)C)N1C(=O)C(CC(=O)N2CCC(N3CCc4ccccc4NC3=O)CC2)SC1c1ccccc1 (some centres unmarked) [Compound 225]	< 1000	< 1000
O=C(CC1SC(c2ccccc2)N(CCc2ccccc2)C1=O)N1CCC(N2Cc3ccccc3NC2=O)CC1 (centres unmarked) [Compound 58]	< 1000	< 1000
O=C(CC1SC(c2ccccc2)N(C2CC2)C1=O)N1CCC(N2Cc3ccccc3NC2=O)CC1 (centres unmarked) [Compound 230]	> 5000	1000 to 5000
CC(C)CC1SC(CC(=O)N2CCC(N3Cc4ccccc4NC3=O)CC2)C(=O)N1CC(F)(F)F (centres unmarked) [Compound 226]	1000 to 5000	< 1000
CC(C)CCN1C(=O)C(CC(=O)N2CCC(N3CCc4ccccc4NC3=O)CC2)SC1c1ccccc1-n1cccn1 (centres unmarked) [Compound 183]	< 1000	< 1000
CC(C)(C)CCN1C(=O)C(CC(=O)N2CCC(n3c(=O)[nH]c4ncccc43)CC2)SC1c1cccc(F)c1NCCN1CCOCC1 (stereo in doubt) [Compound 517, 1-(1-(2-((5S)-2-(2-(2-Morpholinoethylamino)-3-fluorophenyl)-3-(3,3-dimethylbutyl)-4-oxothiazolidin-5-yl)acetyl)piperidin-4-yl)-1H-imidazo[4,5-b]pyridin-2(3H)-one]	< 1000	< 1000
CCCN1C(=O)[C@H](CC(=O)N2CCC(n3c(=O)[nH]c4ncccc43)CC2)SC1c1cccc(F)c1N1CCN(C(C)(C)C)CC1 (some centres unmarked) [Compound 538]	< 1000	< 1000
CC(C)CCN1C(=O)C(CC(=O)N2CCC(N3Cc4ccccc4NC3=O)CC2)SC1c1ccccc1F (centres unmarked) [Compound 170]	< 1000	< 1000

More lines, now with the values ahead:

IC50 (endogenous CGRP receptor) [nM]	Ki [1] [nM]	SMILES
< 1000	< 1000	CC(C)CN1C(=O)[C@H](CC(=O)N2CCC(N3CCc4ccccc4NC3=O)CC2)SC1c1cccc(F)c1N1CCN(C(C)(C)C)CC1 (some centres unmarked) [Compound 493]
< 1000	< 1000	CC(C)(C)CCN1C(=O)[C@H](CC(=O)N2CCC(N3CCc4ccccc4NC3=O)CC2)SC1c1ccn(C2CCNCC2)n1 (some centres unmarked) [Compound 491]
< 1000	< 1000	CC(C)(C)CCN1C(=O)C(CC(=O)N2CCC(N3CCc4ccccc4NC3=O)CC2)SC1c1ccccc1 (centres unmarked) [Compound 8]
< 1000	< 1000	CC(C)CCN1C(=O)[C@H](CC(=O)N2CCC(N3CCc4ccccc4NC3=O)CC2)SC1c1cccc(F)c1N1CCN(C(C)(C)C)CC1 (some centres unmarked) [Compound 544]
< 1000	< 1000	CC(C)N1CCN(c2c(F)cccc2[C@H]2S[C@@](C)(CC(=O)N3CCC(N4CCc5ccccc5NC4=O)CC3)C(=O)N2CCC(C)(C)C)CC1 [Compound 432]
< 1000	< 1000	CC(C)(C)CCN1C(=O)C(CC(=O)N2CCC(N3CCc4ccccc4NC3=O)CC2)SC1c1ccccc1-n1cccn1 (centres unmarked) [Compound 88]
< 1000	< 1000	CC(C)(C)N1CCN(c2c(F)cccc2[C@@H]2S[C@@H](CC(=O)N3CCC(N4CCc5ccccc5NC4=O)CC3)C(=O)N2CC2CC2)CC1 [Compound 488]
< 1000	< 1000	CC(C)(C)CCN1C(=O)[C@H](CC(=O)N2CCC(N3CCc4ccccc4NC3=O)CC2)S[C@H]1c1ccccc1C1CCNCC1 [Compound 502, 4,5-Dihydro-3-(1-(2-((2S,5S)-3-(3,3-dimethylbutyl)-4-oxo-2-(2-(piperidin-4-yl)phenyl)thiazolidin-5-yl)acetyl)piperidin-4-yl)-1H-benzo[d][1,3]diazepin-2(3H)-one]
1000 to 5000	< 1000	CC(C)(C)CCN1C(=O)[C@H](CC(=O)N2CCC(N3CCc4ccccc4NC3=O)CC2)SC1c1cnc(C2CCN(C(=O)OC(C)(C)C)CC2)s1 (stereo partly drawn) [Compound 492, tert-Butyl 4-(5-((5S)-3-(3,3-dimethylbutyl)-4-oxo-5-(2-oxo-2-(4-(2-oxo-4,5-dihydro-1H-benzo[d][1,3]diazepin-3(2H)-yl)piperidin-1-yl)ethyl)thiazolidin-2-yl)thiazol-2-yl)piperidine-1-carboxylate]
< 1000	< 1000	CC(C)(C)CCN1C(=O)C(CC(=O)N2CCC(N3CCc4ccccc4NC3=O)CC2)SC1c1cccc(F)c1NCCN1CCOCC1 (stereo in doubt) [Compound 506, 3-(1-(2-((5S)-2-(2-(2-Morpholinoethylamino)-3-fluorophenyl)-3-(3,3-dimethylbutyl)-4-oxothiazolidin-5-yl)acetyl)piperidin-4-yl)-4,5-dihydro-1H-benzo[d][1,3]diazepin-2(3H)-one]
< 1000	< 1000	CC(C)(C)CCN1C(=O)[C@H](CC(=O)N2CCC(N3CCc4ccccc4NC3=O)CC2)SC1c1cccc(F)c1N1CCN(C2CCC2)CC1 (some centres unmarked) [Compound 543]
< 1000	< 1000	CC(C)(C)CCN1C(=O)C(CC(=O)N2CCC(N3CCc4ccccc4NC3=O)CC2)SC1c1cccc(F)c1N1CCN(C2CC2)CC1 (centres unmarked) [Compound 389]
< 1000	< 1000	CC(C)(C)N1CCN(c2c(F)cccc2[C@H]2S[C@@H](CC(=O)N3CCC(N4CCc5ccccc5NC4=O)CC3)C(=O)N2CC2CCCCC2)CC1 [Compound 514]
< 1000	< 1000	CC(C)CCN1CCC(c2ncc(C3S[C@@H](CC(=O)N4CCC(N5CCc6ccccc6NC5=O)CC4)C(=O)N3CCC(C)(C)C)s2)CC1 (some centres unmarked) [Compound 519]
1000 to 5000	< 1000	CC(C)(C)CCN1C(=O)[C@H](CC(=O)N2CCC(n3c(=O)[nH]c4ncccc43)CC2)SC1c1cccc(F)c1N1CCN(C(=O)OC(C)(C)C)CC1 (some centres unmarked) [Compound 549]
